Experimental data: US20040006070A1, “Intraspinal continuous infusion of midazolam hydrochloride for the treatment of pain” (priority 2002, published 2004)

How the values were obtained:
[1] = Physiological data: indirect blood pressure, pulse, rectal temperature, weight; format: in vivo, sheep; settings: sheep #980 Dudley
Source text: Daily rectal temperatures were taken and any behavioral/motor changes were noted. Gait monitoring will be conducted as described below based on a four-grade scale for the evaluation of behavioral and motor changes. Grade 0: animal standing, sheep is able to rise and ambulate without any difficulty. Grade 1: Shuffling of either rear leg or slight limp; slight distortion of normal spinal axis. Grade 2: Loss of righting reflex in one of the rear legs, sheep able to stand without assistance, but with some difficulty. Grade 3: Inability to maintain standing posture; attempts to help animal stand are unsuccessful.
Indirect blood pressure, pulse recording, pain testing (mechanical stimulus device, cold and warm water baths see description in procedure) and weight were taken on days 1, 3, 7, 15, 22, 29, 36, and 43. Venous blood samples (15 ml drawn from the jugular vein with Vacutainer brand blood collection tubes) for complete blood count, electrolytes, and extended blood chemistry were drawn on days 1, 15, and 43 (mild procedure only light hand restraint necessary).

[2] = test system: neuropathic pain model in the sheep; assay: Neuropathic pain model in sheep, behavior monitoring (Observer 3.0) with visual analog pain score; format: in vivo; settings: sheep #980 Dudley
Source text: The neuropathic pain model in the sheep is created by placing four tight ligatures around the median, radial, or ulnar nerve (or a combination thereof) with 0-chromic gut suture. This method produces a chronic painful peripheral mononeuropathy which may be related to those conditions seen in humans with causalgia and reflex sympathetic dystrophy.
To evaluate animal behavior, the Observer 3.0 software (Noldus Information Technology, The Netherlands) was used to aid docmentation of a daily record of multiple traits. […] The behavior was then interpreted into a visual analog pain score (VAS), where 0 represents no pain and 100 represents severe pain.
Approximately three days prior to surgery each sheep will undergo a 15-minute baseline behavior evaluation. The observations made in this evaluation include, a computerized behavior software recording (the Observer) for 15minutes—gait monitoring—and recording of pain perception via visual analog scale-using the Observer. In some animals, recording of vital signs (blood pressure, heart rate, respirations per minute) will be performed using the Observer. Baseline values for pain perception are recorded via the mechanical stimulus device and/or behavior monitoring will also be performed at this time.
The sheep will be observed daily postoperatively. […] Observations of neuropathic pain development include changes in ambulation, alertness, appetite, urination, defecation, herding activity, body temperature and pain behaviors. This daily behavior is recorded utilizing the observer (an observational software system).

[3] = cited from earlier work
[4] = MDZ 3 mg per day, daily values, first and second course
[5] = MS 6.5 mg per day, daily values

Cc1ncc2n1-c1ccc(Cl)cc1C(c1ccccc1F)=NC2 [MDZ]
Resp per min. ([1]; MDZ 4 mg per day): 58 per min.
Other behavior: Defaecation ([2]; MDZ 2 mg per day): 0.65%
Other behavior: Eating lying ([2]; MDZ 2 mg per day): 1.69%
Other behavior: Ruminating laying down ([2]; MDZ 2 mg per day): 98.28%,
Other behavior: Ruminating standing ([2]; MDZ 2 mg per day): 0.48%
Grind teeth ([2]; MDZ 2 mg per day, daily values): 0%
Other behavior ([2]; MDZ 2 mg per day, daily values): 0
Other behavior: Defaecation ([2]; MDZ 3 mg per day): 0.49%
Other behavior: Drinking ([2]; MDZ 3 mg per day): 0.6%
Other behavior: Eating lying ([2]; MDZ 3 mg per day): 1.14%
Grind teeth [2, 4]: 0%
Holding unoperated leg off the ground [2, 4]: 0%
Other behavior [2, 4]: 0
Eating ([2]; MDZ 4 mg per day): 36.49%
Grind teeth ([2]; MDZ 4 mg per day): 0%
Holding operated leg off the ground ([2]; MDZ 4 mg per day): 2.78%
Holding unoperated leg off the ground ([2]; MDZ 4 mg per day): 0.36%
Laying down ([2]; MDZ 4 mg per day): 0%
Not bearing weight on operated leg ([2]; MDZ 4 mg per day): 29.65%
Observe Operated leg ([2]; MDZ 4 mg per day): 1.51%
Other behavior: Bleating ([2]; MDZ 4 mg per day): 0.76%
Pain Score ([2]; MDZ 4 mg per day): 50%
Standing ([2]; MDZ 4 mg per day): 0.52%
Walking ([2]; MDZ 4 mg per day): 1.09%
Grind teeth ([2]; MDZ 5 mg per day, daily values): 0%
Holding unoperated leg off the ground ([2]; MDZ 5 mg per day, daily values): 0%
Laying down ([2]; MDZ 5 mg per day, daily values): 0%
Observe Operated leg ([2]; MDZ 5 mg per day, daily values): 0%
Pain Score ([2]; MDZ 5 mg per day, daily values): 85%
Standing ([2]; MDZ 5 mg per day, daily values): 0%
Other behavior: Defaecation ([2]; MDZ 6 mg per day): 0.94%
Other behavior: Eating lying ([2]; MDZ 6 mg per day): 0.21%
Other behavior: Pulling wool ([2]; MDZ 6 mg per day): 0.26%,
Grind teeth ([2]; MDZ 6 mg per day, daily values): 0%
Holding unoperated leg off the ground ([2]; MDZ 6 mg per day, daily values): 0%
Laying down ([2]; MDZ 6 mg per day, daily values): 0%
Other behavior ([2]; MDZ 6 mg per day, daily values): 0
Standing ([2]; MDZ 6 mg per day, daily values): 0%

CN1CC[C@]23c4c5ccc(O)c4O[C@H]2[C@@H](O)C=C[C@H]3[C@H]1C5.CN1CC[C@]23c4c5ccc(O)c4O[C@H]2[C@@H](O)C=C[C@H]3[C@H]1C5.O=S(=O)(O)O [MS]
Resp per min. ([1]; MS 2 mg per day): 22 per min.
Resp per min. ([1]; MS 4 mg per day): 64 per min.
Resp per min. ([1]; MS 6 mg per day): 64 per min.
Other behavior: Drink ([2]; MS 1 mg per day): 0.5%
Laying down ([2]; MS 1 mg per day, daily values): 0%
Other behavior ([2]; MS 1 mg per day, daily values): 0
Eating ([2]; MS 2 mg per day): 0%
Grind teeth ([2]; MS 2 mg per day): 1.39%
Holding operated leg off the ground ([2]; MS 2 mg per day): 15.88%
Holding unoperated leg off the ground ([2]; MS 2 mg per day): 0%
Laying down ([2]; MS 2 mg per day): 0%
Not bearing weight on operated leg ([2]; MS 2 mg per day): 64.74%
Observe Operated leg ([2]; MS 2 mg per day): 0.19%
Other behavior ([2]; MS 2 mg per day): 0
Pain Score ([2]; MS 2 mg per day): 90%
Standing ([2]; MS 2 mg per day): 17.34%
Walking ([2]; MS 2 mg per day): 0.47%
Other behavior: Ruminating standing ([2]; MS 3 mg per day): 2.69%
Holding unoperated leg off the ground ([2]; MS 3 mg per day, daily values): 0%
Laying down ([2]; MS 3 mg per day, daily values): 0%
Other behavior ([2]; MS 3 mg per day, daily values): 0
Pain Score ([2]; MS 3 mg per day, daily values): 85%
Standing ([2]; MS 3 mg per day, daily values): 0%
Eating ([2]; MS 4 mg per day): 4.72%
Grind teeth ([2]; MS 4 mg per day): 0%
Holding operated leg off the ground ([2]; MS 4 mg per day): 5.2%
Holding unoperated leg off the ground ([2]; MS 4 mg per day): 0%
Laying down ([2]; MS 4 mg per day): 0%
Not bearing weight on operated leg ([2]; MS 4 mg per day): 69.53%
Observe Operated leg ([2]; MS 4 mg per day): 0%
Other behavior: Ruminating standing ([2]; MS 4 mg per day): 15.2%
Pain Score ([2]; MS 4 mg per day): 83%
Standing ([2]; MS 4 mg per day): 0%
Walking ([2]; MS 4 mg per day): 5.36%
Other behavior: Bleating ([2]; MS 5 mg per day): 0.98%
Other behavior: Eating lying ([2]; MS 5 mg per day): 0.7%,
Other behavior: Pulling wool ([2]; MS 5 mg per day): 0.28%,
Other behavior: pawing ground ([2]; MS 5 mg per day): 0.85%
Grind teeth ([2]; MS 5 mg per day, daily values): 0%
Standing ([2]; MS 5 mg per day, daily values): 0%
Eating ([2]; MS 6 mg per day): 0%
Grind teeth ([2]; MS 6 mg per day): 0%
Holding operated leg off the ground ([2]; MS 6 mg per day): 9.77%
Holding unoperated leg off the ground ([2]; MS 6 mg per day): 0.52%
Laying down ([2]; MS 6 mg per day): 43.57%
Not bearing weight on operated leg ([2]; MS 6 mg per day): 35.43%
Observe Operated leg ([2]; MS 6 mg per day): 0.66%
Other behavior ([2]; MS 6 mg per day): 0
Pain Score ([2]; MS 6 mg per day): 80%
Standing ([2]; MS 6 mg per day): 0.99%
Walking ([2]; MS 6 mg per day): 9.07%
Other behavior: Eating lying ([2]; MS 6.5 mg per day): 9.31%
Holding unoperated leg off the ground [2, 5]: 0%
Other behavior [2, 5]: 0

COc1ccc2c3c1O[C@H]1C(=O)CC[C@@]4(O)[C@@H](C2)N(C)CC[C@]314 [Oxycodone]
approximate equipotent dose, IT ([3]; route IT): 10
approximate equipotent dose, IV ([3]; route IV): 200
approximate equipotent dose, PO ([3]; route PO): 600
